Data on 36 compounds can be found in ChEMBL document CHEMBL5634104, “Identification of 1,3,4-oxadiazolyl-containing β-carboline derivatives as novel α-glucosidase inhibitors with antidiabetic activity” (Eur J Med Chem, 2023).

Series [1] addresses T1, Alpha-glucosidase (Saccharomyces cerevisiae S288c, UniProt P53341+P38158+P07265). In words: Inhibition of Saccharomyces cerevisiae Alpha-glucosidase using p-NPG as substrate and measured after 10 mins. The format is protein assay.
The subject of series [2] is Mus musculus. As to the kind of experiment: Antihyperlipidemic activity against streptozocin-induced C57/6J mouse assessed as decrease in total cholesterol level at 50 mg/kg/day, po administered for 4 weeks by automatic biochemical analyzer. In kind it is functional, organism-based.
For series [3], the system named is Mus musculus. As to the kind of experiment: Anti-diabetic activity against streptozocin-induced C57/6J mouse diabetes model assessed as change in fasting blood glucose at 50 mg/kg/day, po and measured after 1 week. In kind it is functional, organism-based. The note with it: time 1.0 weeks.
For series [4], the target named is T1, Alpha-glucosidase. In words: Noncompetitive inhibition of Saccharomyces cerevisiae Alpha-glucosidase assessed as decrease in Vmax with constant Km using p-NPG as substrate by Lineweaver-Burk plot analysis. The format is protein assay.
Series [5] deals with Mus musculus. As to the kind of experiment: Anti-diabetic activity against streptozocin-induced C57/6J mouse diabetes model assessed as decrease in blood glucose level at 50 mg/kg/day, po administered for 25 days in presence of sucrose by OGTT assay. In kind it is functional, organism-based. The note with it: time 25.0 day.
Series [6] has as its system Mus musculus. As to the kind of experiment: Anti-diabetic activity against streptozocin-induced C57/6J mouse diabetes model assessed as decrease in fasting blood glucose at 50 mg/kg/day, po and measured from 2 to 4 weeks. In kind it is functional, organism-based. The note with it: time 2-4 weeks.
The next series relates to L02. In words: Cytotoxicity against human L02 cells upto 32 uM. In kind it is toxicity, cell-based. The note with it: l02, 32 µM.
Series [7] concerns Mus musculus. In words: Antihyperlipidemic activity against streptozocin-induced C57/6J mouse assessed as decrease in triglyceride level at 50 mg/kg/day, po administered for 4 weeks by automatic biochemical analyzer. In kind it is functional, organism-based.
In series [8] the test system is Mus musculus. In words: Anti-diabetic activity against streptozocin-induced C57/6J mouse diabetes model assessed as decrease in fasting blood glucose at 100 mg/kg/day, po and measured from 2 to 4 weeks. In kind it is functional, organism-based. Conditions: time 2-4 weeks.
Series [9] deals with Mus musculus. In words: Anti-diabetic activity against streptozocin-induced C57/6J mouse diabetes model assessed as change in fasting blood glucose at 100 mg/kg/day, po and measured after 1 week. The format is functional, organism-based. Conditions: time 1.0 weeks.
Series [10] has as its system Mus musculus. In words: Anti-diabetic activity against streptozocin-induced C57/6J mouse diabetes model assessed as decrease in blood glucose level at 100 mg/kg/day, po administered for 25 days in presence of sucrose by OGTT assay. The format is functional, organism-based. Conditions: time 25.0 day.
In series [11] the test system is Mus musculus. As to the kind of experiment: Antihyperlipidemic activity against streptozocin-induced C57/6J mouse assessed as decrease in triglyceride level at 100 mg/kg/day, po administered for 4 weeks by automatic biochemical analyzer. In kind it is functional, organism-based.
In series [12] the test system is Mus musculus. As to the kind of experiment: Antihyperlipidemic activity against streptozocin-induced C57/6J mouse assessed as decrease in total cholesterol level at 100 mg/kg/day, po administered for 4 weeks by automatic biochemical analyzer. In kind it is functional, organism-based.

Each structure is given as a SMILES string. Calls of active or inactive are those of the source. The rule behind the calls is not given here.

Regarding `N#Cc1ccc(CSc2nnc(-c3cc4c([nH]c5ccccc54)c(-c4ccccc4)n3)o2)cc1`, the half-maximal inhibitory concentration (IC50) at Alpha-glucosidase [1] turned out to be 10.36 µM.

Compound `FC(F)(F)Oc1cccc(CSc2nnc(-c3cc4c([nH]c5ccccc54)c(-c4ccccc4)n3)o2)c1` had an IC50 against Alpha-glucosidase [1] of 10.93 µM. This IC50 and that of the compound before are within 1.5-fold of each other.

Consider `Fc1ccc(CSc2nnc(-c3cc4c([nH]c5ccccc54)c(-c4ccccc4)n3)o2)cc1`, for which, on Alpha-glucosidase [1], the IC50 came out at 14.73 µM. The IC50 values of the last two compounds are within 1.5-fold of each other.

As for `FC(F)(F)Oc1ccc(CSc2nnc(-c3cc4c([nH]c5ccccc54)c(-c4ccccc4)n3)o2)cc1`, the IC50 on Alpha-glucosidase [1] was found to be 6.44 µM.

In turn, `N#Cc1cccc(CSc2nnc(-c3cc4c([nH]c5ccccc54)c(-c4ccccc4)n3)o2)c1` had an IC50 at Alpha-glucosidase [1] of 10.42 µM.

With `c1ccc(-c2ccccc2CSc2nnc(-c3cc4c([nH]c5ccccc54)c(-c4ccccc4)n3)o2)cc1`, the result in the series on Mus musculus [2], with Mus musculus [5], with Mus musculus [6] and in the series with Mus musculus [7] was Active. Further, the result in the series on Mus musculus [3] was inactive. Also, the inhibitory constant (Ki) on Alpha-glucosidase [4] turned out to be 1.22 µM. Also, the Activity result with L02 is reported as “Non-Toxic”. For the same compound, the half-inhibitory concentration (IC50) against Alpha-glucosidase [1] worked out at 3.07 µM.

The compound `N#Cc1ccccc1CSc1nnc(-c2cc3c([nH]c4ccccc43)c(-c3ccccc3)n2)o1` returned a half-inhibitory concentration (IC50) on Alpha-glucosidase [1] of 10.57 µM. This lies in the double-digit micromolar range.

Turning to `Clc1cccc(CSc2nnc(-c3cc4c([nH]c5ccccc54)c(-c4ccccc4)n3)o2)c1`, the IC50 at Alpha-glucosidase [1] is 12.71 µM.

At Alpha-glucosidase [1], `FC(F)(F)c1ccc(CSc2nnc(-c3cc4c([nH]c5ccccc54)c(-c4ccccc4)n3)o2)cc1` showed an IC50 of 8.48 µM. The IC50 values of the last two compounds are within 1.5-fold of each other.

In the case of `Cc1ccc(CSc2nnc(-c3cc4c([nH]c5ccccc54)c(-c4ccccc4)n3)o2)cc1`, the half-inhibitory concentration (IC50) at Alpha-glucosidase [1] came out at 11.86 µM.

For the compound `COC(=O)c1cccc(CSc2nnc(-c3cc4c([nH]c5ccccc54)c(-c4ccccc4)n3)o2)c1`, the IC50 against Alpha-glucosidase [1] is 4.93 µM.

`Brc1ccccc1CSc1nnc(-c2cc3c([nH]c4ccccc43)c(-c3ccccc3)n2)o1`: the IC50 against Alpha-glucosidase [1] was determined as 6.97 µM.

In the case of `c1ccc(-c2cccc(CSc3nnc(-c4cc5c([nH]c6ccccc65)c(-c5ccccc5)n4)o3)c2)cc1`, the IC50 against Alpha-glucosidase [1] was determined as 3.39 µM. Compared with the last compound, the IC50 is about 2.1-fold lower.

`Clc1ccc(CSc2nnc(-c3cc4c([nH]c5ccccc54)c(-c4ccccc4)n3)o2)cc1` yielded an IC50 on Alpha-glucosidase [1] of 5.31 µM.

`FC(F)(F)c1ccccc1CSc1nnc(-c2cc3c([nH]c4ccccc43)c(-c3ccccc3)n2)o1`: the IC50 against Alpha-glucosidase [1] amounted to 10.59 µM.

`CS(=O)(=O)c1ccc(CSc2nnc(-c3cc4c([nH]c5ccccc54)c(-c4ccccc4)n3)o2)cc1` returned an IC50 at Alpha-glucosidase [1] of 6.15 µM.

As to `Clc1ccccc1CSc1nnc(-c2cc3c([nH]c4ccccc43)c(-c3ccccc3)n2)o1`, the IC50 on Alpha-glucosidase [1] came out at 5.46 µM.

In the case of `O=[N+]([O-])c1cccc(CSc2nnc(-c3cc4c([nH]c5ccccc54)c(-c4ccccc4)n3)o2)c1`, the IC50 on Alpha-glucosidase [1] is 5.76 µM.

`Fc1ccc(CSc2nnc(-c3cc4c([nH]c5ccccc54)c(-c4ccccc4)n3)o2)cc1F`: the half-inhibitory concentration (IC50) on Alpha-glucosidase [1] was 9.12 µM.

Regarding `COC(=O)c1ccccc1CSc1nnc(-c2cc3c([nH]c4ccccc43)c(-c3ccccc3)n2)o1`, the 50% inhibitory concentration (IC50) against Alpha-glucosidase [1] stood at 5.58 µM.

With `Clc1ccc(CSc2nnc(-c3cc4c([nH]c5ccccc54)c(-c4ccccc4)n3)o2)cc1Cl`, at Alpha-glucosidase [1], the IC50 was 9.66 µM.

`Fc1ccccc1CSc1nnc(-c2cc3c([nH]c4ccccc43)c(-c3ccccc3)n2)o1` returned an IC50 against Alpha-glucosidase [1] of 14.75 µM.

In the case of `FC(F)(F)c1cccc(CSc2nnc(-c3cc4c([nH]c5ccccc54)c(-c4ccccc4)n3)o2)c1`, the IC50 against Alpha-glucosidase [1] came to 12.25 µM. This IC50 and that of the compound before are within 1.5-fold of each other.

`Cc1ccccc1CSc1nnc(-c2cc3c([nH]c4ccccc43)c(-c3ccccc3)n2)o1` returned a half-maximal inhibitory concentration (IC50) against Alpha-glucosidase [1] of 3.33 µM.

As to `FC(F)(F)Oc1ccccc1CSc1nnc(-c2cc3c([nH]c4ccccc43)c(-c3ccccc3)n2)o1`, the IC50 on Alpha-glucosidase [1] came out at 10.64 µM. This IC50 is about 3.2-fold higher than that of the compound before.

As to `O=[N+]([O-])c1ccc(CSc2nnc(-c3cc4c([nH]c5ccccc54)c(-c4ccccc4)n3)o2)cc1`, the Ki at Alpha-glucosidase [4] was 2.86 µM. Moreover, the half-inhibitory concentration (IC50) against Alpha-glucosidase [1] is 3.1 µM.

`CC(C)(C)c1ccc(CSc2nnc(-c3cc4c([nH]c5ccccc54)c(-c4ccccc4)n3)o2)cc1` had a 50% inhibitory concentration (IC50) on Alpha-glucosidase [1] of 4.95 µM.

In the case of `C[C@H]1O[C@H](O[C@H]2[C@H](O)[C@@H](O)[C@@H](O[C@H]3[C@H](O)[C@@H](O)C(O)O[C@@H]3CO)O[C@@H]2CO)[C@H](O)[C@@H](O)[C@@H]1N[C@H]1C=C(CO)[C@@H](O)[C@H](O)[C@H]1O` (some centres undefined), the result with Mus musculus [8], in the series with Mus musculus [10], in the series on Mus musculus [11] and in the series with Mus musculus [12] was Active. In addition, in the series on Mus musculus [9], the outcome was inactive.

In turn, `c1ccc(-c2ccc(CSc3nnc(-c4cc5c([nH]c6ccccc65)c(-c5ccccc5)n4)o3)cc2)cc1` gave a half-inhibitory concentration (IC50) at Alpha-glucosidase [1] of 4.32 µM.

In the case of `Brc1ccc(CSc2nnc(-c3cc4c([nH]c5ccccc54)c(-c4ccccc4)n3)o2)cc1`, the IC50 on Alpha-glucosidase [1] came out at 5.42 µM.

`COC(=O)c1ccc(CSc2nnc(-c3cc4c([nH]c5ccccc54)c(-c4ccccc4)n3)o2)cc1` gave an IC50 on Alpha-glucosidase [1] of 4.6 µM.

Compound `Brc1cccc(CSc2nnc(-c3cc4c([nH]c5ccccc54)c(-c4ccccc4)n3)o2)c1` registered an IC50 against Alpha-glucosidase [1] of 8.47 µM.

Take `c1ccc(CSc2nnc(-c3cc4c([nH]c5ccccc54)c(-c4ccccc4)n3)o2)cc1`: at Alpha-glucosidase [4], the Ki came out at 1.81 µM. Also, the IC50 against Alpha-glucosidase [1] stood at 15.49 µM.

The compound `Fc1cccc(CSc2nnc(-c3cc4c([nH]c5ccccc54)c(-c4ccccc4)n3)o2)c1` displayed an IC50 on Alpha-glucosidase [1] of 15.41 µM.

Regarding `O=[N+]([O-])c1ccccc1CSc1nnc(-c2cc3c([nH]c4ccccc43)c(-c3ccccc3)n2)o1`, the half-inhibitory concentration (IC50) against Alpha-glucosidase [1] is 9.57 µM.

As for `Cc1cccc(CSc2nnc(-c3cc4c([nH]c5ccccc54)c(-c4ccccc4)n3)o2)c1`, the IC50 on Alpha-glucosidase [1] is 10.4 µM.

Usually IC50 stands for the point on the concentration scale where inhibition reaches its midpoint. Read a low IC50 as higher potency. A word on the Ki: it is a measure of affinity in units of concentration, obtained from inhibition or displacement.
